In article PMC3959874 (European journal of dermatology : EJD, 2013):

What was measured:
[1] = system: primary bone marrow derived dendritic cells (BMDC); assay: Cytokine induction; format: cell-based, mouse; conditions: graded doses overnight, ELISA (figures 1B, C)
Melatonin MT1 = Melatonin MT1 (Homo sapiens, UniProt P48039); assay: Radioligand binding assay; conditions: 10 μM; 25 °C, 180 min
CYP450, 1A2 = CYP450, 1A2 (Homo sapiens, UniProt P05177); assay: Cytochrome P450 enzyme assay; format: in vitro ADME; conditions: 10 μM; 37 °C, 30 min
Dopamine D24 = Dopamine D24 (Homo sapiens, UniProt P14416); assay: Radioligand binding assay; conditions: 10 μM; 37 °C, 120 min
Calcium Channel N-Type = Calcium Channel N-Type (Rattus norvegicus, UniProt Q02294); assay: Radioligand binding assay; conditions: 10 μM; 4 °C, 30 min
Dopamine D3 = Dopamine D3 (Homo sapiens, UniProt P35462); assay: Radioligand binding assay; conditions: 10 μM; 37 °C, 120 min
Histamine H1 = Histamine H1 (Homo sapiens, UniProt P35367); format: binding; conditions: 10 μM; 25 °C, 180 min
[2] = biological target: Transporter, Norepinephrine (NET) (Homo sapiens, UniProt P23975); assay: Radioligand binding assay; conditions: 10 μM; 4 °C, 180 min
CYP450, 2D6 = CYP450, 2D6 (Homo sapiens, UniProt P10635); assay: Cytochrome P450 enzyme assay; format: in vitro ADME; conditions: 10 μM; 37 °C, 45 min
Glutamate, NMDA, Agonism = assay: Radioligand binding assay; design: species or system rat; conditions: 10 μM; 4 °C, 20 min
Purinergic P2x = assay: Radioligand binding assay; design: species or system rabbit; conditions: 10 μM; 25 °C, 30 min
Transporter, GABA = Transporter, GABA (Rattus norvegicus, UniProt P23978); assay: Radioligand binding assay; conditions: 10 μM; 25 °C, 20 min
TLR7 = assay: In vitro TLR7-dependent cytokine induction, overall potency comparison; format: cell-based
human whole blood = assay: Cytokine induction in human whole blood assay; format: cell-based; conditions: three donors (figures 1D–F)
human PBMC = assay: IFN-γ secretion by stimulated PBMC; format: cell-based
[3] = biological target: Serotonin (5-Hydroxytryptam ine) 5-HT2B (Homo sapiens, UniProt P41595); assay: Radioligand binding assay; conditions: 10 μM; 37 °C, 60 min
Histamine H3 = Histamine H3 (Homo sapiens, UniProt Q9Y5N1); assay: Radioligand binding assay; conditions: 10 μM; 25 °C, 120 min
[4] = system: murine macrophage cell line RAW 264.7; assay: Cytokine induction; format: cell-based; conditions: RAW 264.7 cells, graded doses overnight, ELISA (figure 1A)
Prostanoid EP4 = Prostanoid EP4 (Homo sapiens, UniProt P35408); assay: Radioligand binding assay; conditions: 10 μM; 25 °C, 120 min
Opiate K (OP2, KOP) = Opiate K (OP2, KOP) (Homo sapiens, UniProt P41145); assay: Radioligand binding assay; conditions: 10 μM; 25 °C, 60 min
[5] = system: Sodium Channel, Site 2 289593; assay: Radioligand binding assay; design: species or system rat; conditions: 10 μM; 37 °C, 60 min
Muscarinic M3 = Muscarinic M3 (Homo sapiens, UniProt P20309); format: binding; conditions: 10 μM; 25 °C, 120 min
Adrenergic a1D = Adrenergic a1D (Homo sapiens, UniProt P25100); assay: Radioligand binding assay; conditions: 10 μM; 25 °C, 60 min
GABAA, Muscimol, Central = assay: Radioligand binding assay; design: species or system rat; conditions: 10 μM; 4 °C, 10 min
Interleukin IL-1 = Interleukin IL-1 (Mus musculus, UniProt P13504); assay: Radioligand binding assay; conditions: 10 μM; 37 °C, 120 min
CYP450, 2C19 = CYP450, 2C19 (Homo sapiens, UniProt P33261); assay: Cytochrome P450 enzyme assay; format: in vitro ADME; conditions: 10 μM; 37 °C, 45 min
Endothelin ETA = Endothelin ETA (Homo sapiens, UniProt P25101); assay: Radioligand binding assay; conditions: 10 μM; 37 °C, 120 min
Bradykinin B1 = Bradykinin B1 (Homo sapiens, UniProt P46663); assay: Radioligand binding assay; conditions: 10 μM; 25 °C, 60 min
Rolipram = assay: Radioligand binding assay; design: species or system rat; conditions: 10 μM; 4 °C, 60 min

Interleukin IL-1, sequence (P13504 20-576): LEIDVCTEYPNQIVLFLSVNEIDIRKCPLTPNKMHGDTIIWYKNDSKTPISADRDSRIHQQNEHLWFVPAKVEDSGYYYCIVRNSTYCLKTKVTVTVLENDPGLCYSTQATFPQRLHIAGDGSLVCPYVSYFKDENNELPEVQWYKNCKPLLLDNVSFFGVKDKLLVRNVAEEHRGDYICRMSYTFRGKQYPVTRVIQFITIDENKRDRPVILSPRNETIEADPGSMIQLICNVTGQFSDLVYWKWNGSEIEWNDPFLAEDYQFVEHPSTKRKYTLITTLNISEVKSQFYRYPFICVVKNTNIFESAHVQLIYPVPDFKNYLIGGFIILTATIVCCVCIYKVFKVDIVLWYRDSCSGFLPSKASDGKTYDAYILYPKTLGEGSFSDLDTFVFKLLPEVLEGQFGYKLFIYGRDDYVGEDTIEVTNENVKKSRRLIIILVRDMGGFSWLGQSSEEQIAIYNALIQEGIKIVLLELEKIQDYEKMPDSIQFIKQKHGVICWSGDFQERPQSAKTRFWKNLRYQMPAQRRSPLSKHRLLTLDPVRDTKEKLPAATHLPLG
Opiate K (OP2, KOP), sequence (P41145 whole entry): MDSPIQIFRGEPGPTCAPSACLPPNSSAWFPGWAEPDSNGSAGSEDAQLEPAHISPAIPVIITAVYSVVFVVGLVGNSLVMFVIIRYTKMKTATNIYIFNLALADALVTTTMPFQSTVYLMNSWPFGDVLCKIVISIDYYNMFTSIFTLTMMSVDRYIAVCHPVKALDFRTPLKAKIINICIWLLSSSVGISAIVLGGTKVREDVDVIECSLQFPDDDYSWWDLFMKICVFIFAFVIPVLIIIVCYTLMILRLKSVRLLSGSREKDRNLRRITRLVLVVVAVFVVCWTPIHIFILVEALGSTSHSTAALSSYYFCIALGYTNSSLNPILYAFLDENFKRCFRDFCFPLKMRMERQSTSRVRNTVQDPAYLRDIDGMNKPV
Endothelin ETA, sequence (P25101 21-427): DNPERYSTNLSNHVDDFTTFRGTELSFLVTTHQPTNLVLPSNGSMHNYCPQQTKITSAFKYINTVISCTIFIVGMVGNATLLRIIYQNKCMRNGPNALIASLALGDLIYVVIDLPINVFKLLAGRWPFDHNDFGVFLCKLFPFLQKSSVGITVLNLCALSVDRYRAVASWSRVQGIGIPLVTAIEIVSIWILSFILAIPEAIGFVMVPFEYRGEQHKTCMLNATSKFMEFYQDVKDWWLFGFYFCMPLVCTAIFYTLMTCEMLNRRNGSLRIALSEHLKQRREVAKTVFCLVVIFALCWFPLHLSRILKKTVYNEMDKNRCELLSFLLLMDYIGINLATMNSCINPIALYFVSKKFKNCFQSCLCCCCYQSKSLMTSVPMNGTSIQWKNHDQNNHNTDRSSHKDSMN
Serotonin (5-Hydroxytryptam ine) 5-HT2B, sequence (P41595 whole entry): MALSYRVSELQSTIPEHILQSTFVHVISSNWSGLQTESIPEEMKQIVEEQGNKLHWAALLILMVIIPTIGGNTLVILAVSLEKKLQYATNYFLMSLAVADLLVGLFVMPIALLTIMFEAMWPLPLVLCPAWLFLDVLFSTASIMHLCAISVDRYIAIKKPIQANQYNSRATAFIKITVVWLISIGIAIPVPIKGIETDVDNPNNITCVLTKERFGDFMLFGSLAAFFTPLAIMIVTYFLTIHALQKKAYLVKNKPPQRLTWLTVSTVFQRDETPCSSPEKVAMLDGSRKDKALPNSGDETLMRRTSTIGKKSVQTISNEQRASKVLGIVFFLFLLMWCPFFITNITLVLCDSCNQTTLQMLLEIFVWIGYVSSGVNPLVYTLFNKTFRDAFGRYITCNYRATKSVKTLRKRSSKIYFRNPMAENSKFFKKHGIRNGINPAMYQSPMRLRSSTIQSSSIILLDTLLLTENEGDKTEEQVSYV
Adrenergic a1D, sequence (P25100 whole entry): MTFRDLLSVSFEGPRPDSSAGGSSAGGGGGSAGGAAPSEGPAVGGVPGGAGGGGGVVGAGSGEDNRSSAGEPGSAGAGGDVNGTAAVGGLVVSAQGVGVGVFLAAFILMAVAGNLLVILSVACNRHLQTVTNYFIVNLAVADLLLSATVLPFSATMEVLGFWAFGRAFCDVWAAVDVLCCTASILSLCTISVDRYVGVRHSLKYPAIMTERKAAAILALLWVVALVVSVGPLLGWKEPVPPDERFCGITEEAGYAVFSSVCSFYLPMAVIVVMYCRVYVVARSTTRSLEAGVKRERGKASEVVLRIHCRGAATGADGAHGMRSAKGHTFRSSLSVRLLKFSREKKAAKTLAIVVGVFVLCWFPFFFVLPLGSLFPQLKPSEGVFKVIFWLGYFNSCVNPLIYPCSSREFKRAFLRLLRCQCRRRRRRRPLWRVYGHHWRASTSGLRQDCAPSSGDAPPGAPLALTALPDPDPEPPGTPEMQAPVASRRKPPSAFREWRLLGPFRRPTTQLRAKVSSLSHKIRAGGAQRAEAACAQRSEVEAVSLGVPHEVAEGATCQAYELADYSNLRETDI
Dopamine D24, sequence (P14416 whole entry): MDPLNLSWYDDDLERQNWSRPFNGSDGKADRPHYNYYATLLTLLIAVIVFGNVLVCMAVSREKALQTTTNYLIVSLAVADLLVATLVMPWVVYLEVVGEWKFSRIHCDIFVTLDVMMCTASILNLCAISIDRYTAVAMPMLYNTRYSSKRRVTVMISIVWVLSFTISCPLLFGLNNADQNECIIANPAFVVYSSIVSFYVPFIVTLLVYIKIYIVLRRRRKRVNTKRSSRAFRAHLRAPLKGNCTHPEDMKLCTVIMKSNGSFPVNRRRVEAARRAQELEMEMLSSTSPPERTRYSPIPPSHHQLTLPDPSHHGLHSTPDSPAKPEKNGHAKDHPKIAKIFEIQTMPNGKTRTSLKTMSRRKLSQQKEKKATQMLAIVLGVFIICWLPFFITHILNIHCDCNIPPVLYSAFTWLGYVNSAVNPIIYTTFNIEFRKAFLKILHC
Bradykinin B1, sequence (P46663 whole entry): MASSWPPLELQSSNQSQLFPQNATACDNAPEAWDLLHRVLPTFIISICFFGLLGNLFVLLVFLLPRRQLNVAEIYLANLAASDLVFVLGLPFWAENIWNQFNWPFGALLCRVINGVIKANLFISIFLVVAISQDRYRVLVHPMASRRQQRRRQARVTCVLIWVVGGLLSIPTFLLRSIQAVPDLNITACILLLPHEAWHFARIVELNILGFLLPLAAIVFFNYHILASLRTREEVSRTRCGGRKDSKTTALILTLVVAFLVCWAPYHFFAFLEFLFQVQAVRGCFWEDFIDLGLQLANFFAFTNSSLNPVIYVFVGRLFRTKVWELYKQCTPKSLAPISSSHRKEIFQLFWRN
CYP450, 2C19, sequence (P33261 whole entry): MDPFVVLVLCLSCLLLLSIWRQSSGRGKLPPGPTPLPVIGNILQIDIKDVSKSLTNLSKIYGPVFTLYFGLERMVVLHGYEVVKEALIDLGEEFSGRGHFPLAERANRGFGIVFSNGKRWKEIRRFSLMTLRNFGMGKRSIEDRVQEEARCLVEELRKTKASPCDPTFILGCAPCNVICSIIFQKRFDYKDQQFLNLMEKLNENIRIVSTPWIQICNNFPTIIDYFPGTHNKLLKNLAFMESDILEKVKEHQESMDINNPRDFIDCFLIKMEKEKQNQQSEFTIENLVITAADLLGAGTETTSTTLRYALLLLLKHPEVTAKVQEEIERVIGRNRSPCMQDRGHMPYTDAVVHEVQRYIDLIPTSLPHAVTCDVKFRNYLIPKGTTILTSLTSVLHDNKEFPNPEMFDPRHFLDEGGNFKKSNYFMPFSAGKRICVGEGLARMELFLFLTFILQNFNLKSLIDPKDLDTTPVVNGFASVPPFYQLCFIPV
Histamine H3, sequence (Q9Y5N1 whole entry): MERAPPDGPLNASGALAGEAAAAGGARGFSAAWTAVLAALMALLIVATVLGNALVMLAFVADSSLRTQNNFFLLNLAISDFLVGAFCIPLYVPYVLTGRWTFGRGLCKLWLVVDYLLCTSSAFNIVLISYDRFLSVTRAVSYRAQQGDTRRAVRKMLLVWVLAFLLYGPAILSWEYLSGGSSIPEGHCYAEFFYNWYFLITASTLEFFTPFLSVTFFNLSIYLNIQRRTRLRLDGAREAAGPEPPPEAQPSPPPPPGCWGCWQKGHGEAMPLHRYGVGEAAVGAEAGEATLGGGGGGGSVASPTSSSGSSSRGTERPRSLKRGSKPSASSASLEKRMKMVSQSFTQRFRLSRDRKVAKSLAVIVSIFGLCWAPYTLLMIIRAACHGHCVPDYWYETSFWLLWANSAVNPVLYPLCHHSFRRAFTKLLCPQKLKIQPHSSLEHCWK

CCCCCCCCCCCC(=O)OC[C@@H](COP(=O)(O)OCCNC(=O)c1ccc(Cn2c(=O)[nH]c3c(N)nc(OCCOC)nc32)cc1)OC(=O)CCCCCCCCCCC [TMX-202]
Potency of mIL-6 and mIL-1β induction compared with IMQ [1]: more potent cytokine inducer
Percent inhibition of specific radioligand binding (Melatonin MT1): 3%
Percent inhibition of enzyme activity (CYP450, 1A2): −4%
Percent inhibition of specific radioligand binding (Dopamine D24): 25%
Percent inhibition of specific radioligand binding (Calcium Channel N-Type): −12%
Percent inhibition of specific radioligand binding (Dopamine D3): 15%
Percent inhibition of specific radioligand binding (Histamine H1): −6%
Percent inhibition of specific radioligand binding [2]: 57%
Percent inhibition of enzyme activity (CYP450, 2D6): 0%
Percent inhibition of specific radioligand binding (Glutamate, NMDA, Agonism): 10%
Percent inhibition of specific radioligand binding (Purinergic P2x): 9%
Percent inhibition of specific radioligand binding (Transporter, GABA): 1%
Potency relative to IMQ in causing TLR7-dependent cytokine induction (TLR7): 100 times
Potency of hIL-12, hIL-6 and hIFN-α induction compared with IMQ (human whole blood): higher potency
IFN-γ secretion compared with vehicle treated controls (human PBMC; PBMC from five independent donors (figure 6C)): significantly higher than vehicle treated controls
Average IFN-γ levels in the TMX-202+CM (human PBMC; human PBMC 10^6/mL, 1 μM TMX-202, 24 hrs, three donors): 204 ± 113 pg/mL
Percent inhibition of specific radioligand binding [3]: 1%
Percent inhibition of specific radioligand binding (Histamine H3): −14%
Potency of mTNFα induction compared with IMQ [4]: more potent cytokine inducer
Percent inhibition of specific radioligand binding (Prostanoid EP4): 7%
Percent inhibition of specific radioligand binding (Opiate K (OP2, KOP)): −9%
Percent inhibition of specific radioligand binding [5]: 15%
Percent inhibition of specific radioligand binding (Muscarinic M3): −6%
Percent inhibition of specific radioligand binding (Adrenergic a1D): 6%
Percent inhibition of specific radioligand binding (GABAA, Muscimol, Central): −3%
Percent inhibition of specific radioligand binding (Interleukin IL-1): 5%
Percent inhibition of enzyme activity (CYP450, 2C19): 1%
Percent inhibition of specific radioligand binding (Endothelin ETA): 13%
Percent inhibition of specific radioligand binding (Bradykinin B1): 3%
Percent inhibition of specific radioligand binding (Rolipram): 21%
